Here are results for 10 molecules from US20150366821A1, “ADRENERGIC AGONISTS FOR USE IN TREATING LIVER DAMAGE” (priority 2012, published 2015).

For series [1], the system named is hepatic progenitor cells (HPC). The series is described as follows: CK19 positive HPC number in Dbh−/− mice infused with isoprenaline. Format: in vivo. The conditions noted are these: ISO infused at 20 mg/kg/day. The procedure: (§1) Dbh^−/− mice were administered ISO as previously described (Mackintosh, C. A., et al. 2000). Mouse recombinant TWEAK (R&D systems) was administered IP at 0.04 μg/g body weight.

Series [2] has as its system HPC number and liver injury. The series is described as follows: Infusion of SNS agonists into spontaneously steatohepatitic ob/ob mice. Format: in vivo.
Another series deals with 603B cells. The experiment in a line: 603B cell proliferation assay (CCK-8 / direct cell counts). Format: cell-based, murine. The procedure: Cell proliferation assay was performed using the Cell counting Kit-8 (CCK-8) according to the manufacturer's protocol.
To further confirm the CCK-8 assay we also directly counted the cell numbers in some experiments. Adherent cells were treated with 0.25% trypsin solution containing 0.02% EGTA in Ca^2+ and Mg^2+ free phosphate-buffered saline at 37° C. for 5 min, and the viable cell number and dead cell number was determined using Nucleocounter (Chemometec).

Series [3] relates to hepatic stellate cells (HSC) and Kupffer cells (KC). The series is described as follows: Wnt expression in isolated liver cell types ex vivo. Format: cell-based, mice. The conditions noted are these: presence of ISO.
Series [4] has as its system APAP induced liver injury. The experiment in a line: APAP induced liver injury model (serum ALT, % necrosis, deaths). The following applies: for ALT 3 h after APAP treatment: APAP alone vs APAP with ISO. The procedure: as §1
The degree of liver injury was assessed by histology and serum ALT. All liver sections were stained with haematoxylin and eosin (H&E) and scanned by NanoZoomer (Hamamatsu, Japan). Necrotic area was measured and expressed as a percentage of necrotic tissue in whole area of liver section using NDP.view (Hamamatsu, Japan).

The next series has as its system β-catenin in hepatocytes. The experiment in a line: β-catenin expression on primary hepatocytes (western blotting). In kind it is cell-based, mice. The conditions noted are these: data not shown. The protocol:
Western blotting was performed as described (Soeda, J et al., 2012). Western blots shown are representative of 2 or 3 independent repeats. Semi-quantitative analysis of western blots by densitometry was carried out using LabWorks 4.6 software (UVP, USA).
Background: In western blotting, separated proteins are transferred to a membrane and probed.

Series [5] has as its system HPC expansion and hepatomegaly. The series is described as follows: Dbh−/− mice on a diet inducing NASH. In kind it is in vivo. The following applies: infusion of ISO.
The subject of series [6] is hepatic progenitor cells (HPC). The series is described as follows: HPC number in livers of normal C57BL/6J mice (EpCAM flow cytometry, CK19 immunohistochemistry). The following applies: ISO 2.5 mg/kg. In kind it is in vivo. Background: In flow cytometry, cells or beads pass a laser one at a time.
Excerpt: Control mice received PBS vehicle (Con). Data are representative from 2 independent experiments. Data are mean±s.e.m. (n=4 per group);
Mice received either a control treatment (Con) or isoprenaline (ISO);
Formalin-fixed paraffin-embedded tissue were cut at 4 μm onto glass slides coated with poly-l-lysine. For chromogenic IHC, antibody binding was visualized using the ImmPRESS Peroxidase Polymer Detection Reagents (Vector lab, UK). For double chromogenic IHC, microwave heat treatment in citric based solution (Vector lab, UK) were applied after the first color development. For immunofluorescence IHC or immunocytochemistry, Alexa Fluor 555 and Alexa Fluor 488 conjugated secondary antibody were used. Nuclei were stained with DAPI (Vector). All images were captured using a Nikon Eclipse e600 microscope and camera (DXM1200F) and acquired with NIS-Elements Advance software (Nikon). HPC numbers were counted by an expert liver pathologist unaware of the identity of the groups as previously described (Oben, J. A., et al. 2003).
For series [7], the system named is hepatic progenitor cells (HPC). The experiment in a line: HPC number in APAP induced liver injury model (flow cytometry, immunohistochemistry).
Series [8] relates to canonical Wnt pathway on HPC. The experiment in a line: Canonical Wnt pathway in liver of ISO treated mice (PCR, immunohistochemistry). Format: in vivo.
Description: FIG. 2F are immunohistochemical stains for active β-catenin in a mouse liver 24 hours after administration of vehicle (Con) or Isoprenaline (ISO). Left panel=lower magnification; Right panel=higher magnification;
Formalin-fixed paraffin-embedded tissue were cut at 4 μm onto glass slides coated with poly-l-lysine. For chromogenic IHC, antibody binding was visualized using the ImmPRESS Peroxidase Polymer Detection Reagents (Vector lab, UK). For double chromogenic IHC, microwave heat treatment in citric based solution (Vector lab, UK) were applied after the first color development. For immunofluorescence IHC or immunocytochemistry, Alexa Fluor 555 and Alexa Fluor 488 conjugated secondary antibody were used. Nuclei were stained with DAPI (Vector). All images were captured using a Nikon Eclipse e600 microscope and camera (DXM1200F) and acquired with NIS-Elements Advance software (Nikon).
Duplicate PCR reactions were performed with multiplex PCR kit (Qiagen) using mixed primer (GAPDH and target primer). Semi-quantitative real time PCR was done with Rotor-Gene 3000 (Corbett Robotics) and QuantiFast SYBR Green PCR kit (Qiagen). All real-time PCR reactions were performed in triplicate with GAPDH as an internal control. Target gene levels in treated samples are presented as a ratio to levels detected in corresponding control samples, according to the ΔΔCt method.
For series [9], the system named is canonical Wnt pathway (β-catenin, Wnt ligands). The experiment in a line: Canonical Wnt pathway in livers of APAP treated mice (western blot, immunohistochemistry, Wnt ligand PCR). Format: in vivo. The procedure: Semi-quantitative real time PCR was done with Rotor-Gene 3000 (Corbett Robotics) and QuantiFast SYBR Green PCR kit (Qiagen). All real-time PCR reactions were performed in triplicate with GAPDH as an internal control. Target gene levels in treated samples are presented as a ratio to levels detected in corresponding control samples, according to the ΔΔCt method. Western blotting was performed as described (Soeda, J et al., 2012). Western blots shown are representative of 2 or 3 independent repeats. Semi-quantitative analysis of western blots by densitometry was carried out using LabWorks 4.6 software (UVP, USA).

For series [10], the system named is canonical Wnt pathway (β-catenin) in 603B cells. The experiment in a line: Canonical Wnt pathway in 603B cells (western blot, immunocytochemistry, real-time PCR). In kind it is cell-based, murine.
For series [11], the system named is HPC population and liver injury. The conditions noted are these: in vivo conditions simulating NASH.
For series [12], the system named is liver progenitors and liver injury. The conditions noted are these: chronic model of liver disease; cited from earlier work.
In series [13] the test system is hepatic progenitor cells (HPC). Format: in vivo, mice. The following applies: recombinant TWEAK 0.04 μg/g IP. The text has this: FIG. 5C are representative images of immunohistochemical staining with CK19 (DAB chromogen, brown), upper panels; and CK19 with Ki67 (AEC chromogen, red), double staining (middle panels) and NFκB p65 immunostaining (lower panels). Insert=higher magnification, arrow head indicates positive staining of ki67 in CK 19+ve HPCs. White arrow head indicates nuclear localization of NFKb p65 in periportal ductular cells;
Nuclei were stained with DAPI (Vector).

The mark [14] stands for this setting: 24 h after APAP 375 mg/kg, APAP alone vs ISO (2.5 mg/kg) 1 h after APAP.

Consider `CC(C)NCC(O)c1ccc(O)c(O)c1` (stereo not shown) [ISO, Isoprenaline], for which the “HPC numbers (CK-19 positive cells)” value in series [1] is on record as “significantly recovered HPC numbers”. For the same molecule, in series [2], the HPC number result is listed as “increases in HPC number” and the liver injury entry was “reduction in liver injury”. Besides, the 603B cell proliferation entry in the series on 603B cells (ISO 100 pM-10 μM) is on record as “induced 603B cell proliferation”. Further, the “Wnt 6 expression in HSC or KC” value in [3] is on record as “did not induce upregulation of Wnt 6”. Also, in [4], the “ALT 3 h after APAP treatment” value was “significantly attenuated”. For the same molecule, in series [4] (setting [14]), the ALT is reported as 674.1±173 IU/L and the hepatic necrosis came out at 18.48±1.935%. For the same molecule, the “effect on deaths after APAP” value in series [4] (APAP 500 mg/kg intraperitoneally, ISO treatment) is recorded as “reduced by ISO treatment”. The “APAP induced-liver injury (ALT)” value in [4] (ISO administered 3 hrs post APAP) is “markedly reduced APAP induced-liver injury”. In the series on β-catenin in hepatocytes, the “β-catenin expression on hepatocytes (Western blotting)” value was “did not increase β-catenin expression”. In [5], the “loss of hepatomegaly and expansion of HPC on NASH diet” value is recorded as “reversed”. For the same molecule, the “number of HPC cells (EpCAM flow cytometry, CK19 immunohistochemistry)” value in series [6] is “increased the number of the HPC cells”. For the same molecule, the “protection of hepatocytes from APAP induced death (LDH release)” value in the series with primary hepatocytes (ISO pre-treatment 100 pM-10 μM, 10 mM APAP) was “did not protect”. Moreover, the “number of HPCs (flow cytometry and immunohistochemistry)” value in series [7] (APAP 375 mg/kg + ISO vs APAP alone) was “significantly increased the number of HPCs”. The “HPC density in the smallest portal tract (CK19 positivity)” value in [7] (APAP+ISO group compared to APAP alone group) is listed as “significantly increased”. In addition, the “Wnt6 mRNA in total liver” value in [8] (24 h after ISO injection) is given as “upregulation of Wnt6 mRNA”. In addition, the “β-catenin immunoreactivity on periportal ductular cell” value in series [8] (24 h after ISO, immunohistochemistry) is “strong β-catenin immunoreactivity”. Further, in [9] (24 h after injection, ISO treated vs APAP alone and controls), the “β-catenin expression in liver (Western blotting)” value is listed as “significantly increased”. In addition, the “Wnt6 expression in total liver” value in [9] (APAP+ISO group compared to APAP only group, 24 h) is recorded as “significantly higher expression”. For the same molecule, the “Wnt 10a expression” value in series [9] (APAP+ISO group, 2 h after APAP administration) is “significantly higher expression”. The β-catenin activation result in series [9] (APAP+ISO group, 3 h after APAP administration) is “significant β-catenin activation”. Further, the “activated β-catenin staining in liver (immunohistochemistry)” value in series [9] (APAP+ISO treated groups, 24 h) is listed as “strong β-catenin staining”. For the same molecule, in series [10] (10 μM ISO, real-time PCR), the “Wnt1, 3a, 6 and ma mRNA expression” value is given as “significantly increased”. In series [10] (10 μM ISO, western blot), the “expression of cyclin D1” value is listed as “significantly upregulated”, the “expression of dephophorelated β-catenin (activated β-catenin)” value is listed as “significantly upregulated” and the “total β-catenin expression” value is given as “significantly increased”. The “nuclear localisation of β-catenin” value in [10] (immunofluorescence cytochemistry) is on record as “accumulation of β-catenin in the nuclei”.

For `CNC[C@H](O)c1cccc(O)c1` [PE, phenylephrine], the 603B cell proliferation entry in the series on 603B cells (PE 10 pM to 10 μM) is on record as “induced moderate but significant proliferation”. The ALT is listed as 2000±1200 in series [4] (APAP 375 mg/kg, PE 3 mg (3 mg/kg) 1 h after APAP, 24 hrs) and 450±200 in series [4] (APAP 375 mg/kg, PE 10 mg (10 mg/kg) 1 h after APAP, 24 hrs).

Turning to Wnt3a, the “β-catenin expression on hepatocytes (Western blotting)” value in the series with β-catenin in hepatocytes is reported as “induced increased β-catenin expression”.

With `CC(=O)Nc1ccc(O)cc1` [APAP, Paracetamol], the “ALT 3 h after APAP treatment” value in series [4] is recorded as “significant elevation in ALT”. This molecule also displayed an ALT in series [4] (setting [14]) of 3332±462.9 IU/L. Also, in series [4] (APAP 500 mg/kg intraperitoneally), the deaths result is “significant number of deaths”.

Regarding `CC(=O)N[C@@H](CS)C(=O)O` [NAC, N-Acetyl Cysteine], the “hepatocyte injury (ALT)” value in series [4] (NAC 150 mg/kg administered 1 hour following APAP overdose) is listed as “markedly reduces hepatocyte injury”. In series [4] (NAC administered 3 hrs post APAP), the “protection from APAP injury (ALT)” value is listed as “did not have a protective role”.

As for `CC(C)NCC(O)COc1cccc2ccccc12` (stereo not shown) [PRL, propranolol], the “effect on ISO induced 603B proliferation” value with 603B cells (pre-treatment with 10 μM PRL, 10 μM ISO) is given as “inhibited ISO induced proliferation”. Moreover, the HPC population result in series [11] was “expanded the HPC population”. Moreover, the “numbers of HPCs (CK19 positive cells density)” value in series [7] (APAP with subsequent PRL) was “reduced numbers of HPCs”.

For `COc1cc2nc(N3CCN(C(=O)c4ccco4)CC3)nc(N)c2cc1OC` [PRZ, prazosin], in series [12], the liver injury result is given as “reduced injury” and the liver progenitors entry was “expanded liver progenitors”.

With `NC[C@H](O)c1ccc(O)c(O)c1` [NE, Norepinephrine], in series [2], the HPC number entry is “increases in HPC number” and the liver injury entry is recorded as “reduction in liver injury”.

B1: DKK1: Wnt antagonist, recombinant mouse Dkk1 (protein, UniProt O54908 32-272, looked up)
Dickkopf-related protein 1: TLNSVLINSNAIKNLPPPLGGAGGQPGSAVSVAPGVLYEGGNKYQTLDNYQPYPCAEDEECGSDEYCSSPSRGAAGVGGVQICLACRKRRKRCMRHAMCCPGNYCKNGICMPSDHSHFPRGEIEESIIENLGNDHNAAAGDGYPRRTTLTSKIYHTKGQEGSVCLRSSDCAAGLCCARHFWSKICKPVLKEGQVCTKHKRKGSHGLEIFQRCYCGEGLACRIQKDHHQASNSSRLHTCQRH
With B1, in the series with 603B cells (recombinant Dkk1 0.1 μg/ml, ISO 10 μM, CCK8), the “proliferation of ISO-treated vs ISO plus DKK1-treated 603B cells” value is “trend towards statistical difference”. The “effect on protection by EpCAM positive cell administration” value in [4] (APAP + EpCAM+ve cells + DKK1) is “reversed the effect of EpCAM positive cell administration”. Further, the “effect on protection by ISO stimulated 603B conditioned media” value with primary hepatocytes (recombinant DKK1 0.1 μg/ml with CM) is “reversed”.

B2: TWEAK: Tumour associated weak inducer of apoptosis; mouse recombinant TWEAK (R&D systems) (protein, UniProt O43508 94-249, looked up)
Tumor necrosis factor ligand …: SAPKGRKTRARRAIAAHYEVHPRPGQDGAQAGVDGTVSGWEEARINSSSPLRYNRQIGEFIVTRAGLYYLYCQVHFDEGKAVYLKLDLLVDGVLALRCLEEFSATAASSLGPQLRLCQVSGLLALRPGSSLRIRTLPWAHLKAAPFLTYFGLFQVH
As to B2, the “HPC proliferation (CK19+ve cells)” value in series [13] is “induced HPC proliferation”. The “APAP induced liver injury (% necrosis, serum ALT)” value in [4] (TWEAK 0.04 μg/g pre-treatment before APAP, 24 h) is listed as “protected from APAP induced liver injury”.
